Reference: patent publication US9517985B2, “Method for producing butanol using extractive fermentation” (Butamax Advanced Biofuels LLC, priority 2013, dated 2016)
Read-outs that look alike come from different tables or passages of the source.

Key:
[1] = tested on: isobutanologen; experiment: Secondary screen for solvent biocompatibility (shake flask; Cellometer viability, glucose, isobutanol); conditions: 30° C.; for % Viability: relative to oleyl alcohol
[2] = tested on: isobutanologen; experiment: Tertiary screen for solvent biocompatibility (growth of isobutanologen in rich media with solvent, time course); assay type: cell-based; conditions: for isobutanol production: FIG. 11, versus oleyl alcohol control; for glucose consumption: FIG. 12, versus oleyl alcohol control; for ethanol consumption: FIG. 13, versus oleyl alcohol control
[3] = tested on: isobutanologen
[4] = tested on: isobutanologen; experiment: Automated primary screen for solvent biocompatibility (96 well plate, propidium iodide dead-cell fluorescence); assay type: cell-based
[5] = Secondary screen for solvent biocompatibility (shake flask; Cellometer viability, glucose, isobutanol); conditions: yeast (isobutanologen)
[6] = tested on: modified Escherichia coli strain; conditions: oleyl alcohol as the organic extractant, Example 6 of US 2009/0305370; cited from earlier work
[7] = tested on: isobutanologen; experiment: Three step screening process, overall biocompatibility call
[8] = propidium iodide signal, 1 h exposure, 1:1 aq:org, room temperature

Row | Compound | Glucose ([1]; 30 Hours) | iBuOH ([1]; 30 Hours) | Glucose ([1]; 4 Hours) | iBuOH ([1]; 4 Hours) | Glucose ([1]; 25 Hours) | iBuOH ([1]; 25 Hours) | viability at 4 h [5] | viability at 25 h [5] | viability at 30 h [5] | also measured
1 | trimethylnonanol | 0.0 g/L | 2.1 g/L |  |  |  |  |  |  |  | % Viability ([1]; 5 Hours): 99%; % Viability ([1]; 30 Hours): 98%; isobutanol production [2]: comparable to oleyl alcohol; glucose consumption [2]: comparable to oleyl alcohol; ethanol consumption [2]: comparable to oleyl alcohol; biocompatibility [3]: biocompatible; % Dead [4, 8]: 3%
2 | CC(C)CC(=O)CC(C)C [2.6-dimethylheptan-4-one] |  |  | 10.9 g/L | 0.6 g/L | 7.9 g/L | 0.9 g/L |  |  |  | % Viability ([1]; 4 Hours, 1:1): 78%; % Viability ([1]; 25 Hours, 1:1): 26%; % Dead [4, 8]: 5%
3 | CCCCCCOCCCCCC [di-n-hexyl ether] |  |  | 8.1 g/L | 1.1 g/L | 0.9 g/L | 1.9 g/L | 106% | 62% |  | 
4 | Cc1cc(C)cc(C)c1 [mesitylene] |  |  | 12.5 g/L | 0.0 g/L | 12.1 g/L | 0.1 g/L | 64% | 17% |  | 
5 | CCCCOC(=O)CCC [n-butyl n-butyrate] |  |  | 12.4 g/L | 0.0 g/L | 11.7 g/L | 0.0 g/L | 48% | 7% |  | 
6 | CCCCCCCCCCCC(=O)OC [methyl laurate] |  |  | 3.9 g/L | 2.1 g/L | 0.0 g/L | 1.6 g/L | 110% | 94% |  | isobutanol production [2]: comparable to oleyl alcohol; glucose consumption [2]: comparable to oleyl alcohol; ethanol consumption [2]: comparable to oleyl alcohol
7 | CC(C)CC(C)(C)C [isooctane] |  |  | 10.8 g/L | 0.5 g/L | 8.5 g/L | 0.8 g/L | 90% | 31% |  | 
8 | CCCCCCCC/C=C\CCCCCCCCO [oleyl alcohol, reference compound] | 0.0 g/L | 2.2 g/L | 5.7 g/L | 1.8 g/L | 0.0 g/L | 2.6 g/L | 100% | 100% | 100% | effective titer for isobutanol [6]: 37 g/L; viability at 5 h [5]: 100%
9 | CCCCCCCCCC [n-decane] |  |  | 5.8 g/L | 1.6 g/L | 0.0 g/L | 2.3 g/L | 107% | 54% |  | 
10 | CCCCC(CC)CO (stereo not drawn) [2-ethyl-1-hexanol, reference compound] | 16.8 g/L | 0.0 g/L | 13.1 g/L | 0.0 g/L | 13.7 g/L | 0.0 g/L | 14% | 6% | 47% | viability at 5 h [5]: 58%
11 | CCCCOC(C)=O [n-butyl acetate] | 16.6 g/L | 0.0 g/L |  |  |  |  |  |  | 35% | viability at 5 h [5]: 46%
12 | Cc1cccc2cccnc12 [8-methylquinoline] | 17.5 g/L | 0.0 g/L |  |  |  |  |  |  | 47% | 
13 | primary amyl acetate mixed isomers |  |  |  |  |  |  |  |  |  | % Dead [4, 8]: 104%
14 | CCCCCCOC(C)=O [n-hexyl acetate] |  |  | 12.8 g/L | 0.0 g/L | 13.0 g/L | 0.0 g/L | 18% | 3% |  | 
15 | CCCCC(CC)COCCO (stereo not drawn) [2-ethylhexylglycol ether] |  |  |  |  |  |  |  |  |  | % Dead [4, 8]: 79%
16 | COC(C)(C)C [MTBE] |  |  | 12.7 g/L | 0.0 g/L | 12.9 g/L | 0.2 g/L |  |  |  | % Dead [4]: 19%
17 | CCCCCCCCCCCC [dodecane] | 0.0 g/L | 1.9 g/L |  |  |  |  |  |  | 99% | biocompatibility [7]: biocompatible; viability at 5 h [5]: 99%; isobutanol production [2]: comparable to oleyl alcohol; glucose consumption [2]: comparable to oleyl alcohol; ethanol consumption [2]: comparable to oleyl alcohol
18 | CCOC(C)(C)C [ETBE] |  |  | 12.5 g/L | 0.0 g/L | 12.8 g/L | 0.0 g/L |  |  |  | % Viability ([1]; 4 Hours, 1:1): 16%; % Viability ([1]; 25 Hours, 1:1): 4%; % Dead [4, 8]: 6%
19 | CC(C)CC(O)CC(C)C [2,6-dimethylheptan-4-ol] |  |  | 12.1 g/L | 0.0 g/L | 11.8 g/L | 0.0 g/L | 42% | 8% |  | 
20 | CCCCC(CC)COC(C)=O (stereo not drawn) [2-ethyl hexyl acetate] |  |  | 10.5 g/L | 0.6 g/L | 7.1 g/L | 1.2 g/L |  |  |  | % Viability ([1]; 4 Hours, 1:1): 96%; % Viability ([1]; 25 Hours, 1:1): 42%; % Dead [4, 8]: 3%
21 | CCCCCCCCOCCCCCCCC [di-n-octyl ether] | 0.0 g/L | 1.9 g/L |  |  |  |  |  |  | 99% | viability at 5 h [5]: 99%; isobutanol production [2]: comparable to oleyl alcohol; glucose consumption [2]: comparable to oleyl alcohol; ethanol consumption [2]: comparable to oleyl alcohol
22 | C1CCC2CCCCC2C1 (stereo not drawn) [decalin] |  |  | 11.2 g/L | 0.4 g/L | 10.3 g/L | 0.5 g/L | 76% | 36% |  | 
23 | CCCCCCCCCCC [n-undecane] | 0.0 g/L | 1.9 g/L |  |  |  |  |  |  | 100% | viability at 5 h [5]: 98%; isobutanol production [2]: comparable to oleyl alcohol; glucose consumption [2]: comparable to oleyl alcohol; ethanol consumption [2]: comparable to oleyl alcohol
24 | CCCCOCCOCCCC [1,2-dibutoxyethane] |  |  | 11.9 g/L | 0.4 g/L | 10.7 g/L | 0.4 g/L | 63% | 8% |  | 
25 | CCCCCCCCCCCC=O [dodecanal] | 0.0 g/L | 0.0 g/L |  |  |  |  |  |  | 62% | viability at 5 h [5]: 78%; biocompatibility [3]: toxic
26 | CCCCCCCCCCCCO [dodecanol] |  |  |  |  |  |  |  |  |  | biocompatibility [7]: toxic
